Patent US20250243189A1, “HERBICIDAL IMIDAZOLE-CONTAINING COMPOUNDS” (SYNGENTA CROP PROTECTION AG, priority 2022, published 2025)

What was measured:
Assay type in all cases: in vivo
Conditions in all cases: 250 g/ha, evaluated after 13 days, five-point scale
[1] = system: Amaranthus retoflexus (AMARE); assay: Post-emergence herbicidal glasshouse test
In short: (§1)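 Pot-grown plants in standard soil; spray at day 1 (pre-em.) or day 8 (post-em.); 250 g/ha unless stated; acetone/water 50:50, 0.5% Tween 20; 24/16° C, 14 h light, 65% RH; % damage at 13 d, 1–5 scale.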

AMAPA [2] = assay: Post-emergence herbicidal glasshouse test
[3] = system: Echinochloa crus-galli (ECHCG); assay: Post-emergence herbicidal glasshouse test
In short: as §1

IPOHE [4] = assay: Post-emergence herbicidal glasshouse test
In short: as §1

Setaria faberi (SETFA) [5] = assay: Post-emergence herbicidal glasshouse test
In short: as §1

[6] = system: Amaranthus retoflexus (AMARE); assay: Pre-emergence herbicidal glasshouse test
In short: as §1

AMAPA [7] = assay: Pre-emergence herbicidal glasshouse test
[8] = system: Echinochloa crus-galli (ECHCG); assay: Pre-emergence herbicidal glasshouse test
In short: as §1

IPOHE [9] = assay: Pre-emergence herbicidal glasshouse test
In short: as §1

Setaria faberi (SETFA) [10] = assay: Pre-emergence herbicidal glasshouse test
In short: as §1

SMILES: Cc1ccc(-c2nc(C(F)F)cn2Cc2ncc(Cl)cn2)s1 [Compound 1.068]
- percentage damage caused to the plant, AMARE [1]: 3 (3=41-60%)
- percentage damage caused to the plant, AMAPA (AMAPA [2]): 2 (2=21-40%)
- percentage damage caused to the plant, ECHCG [3]: 1 (1=0-20%)
- percentage damage caused to the plant, IPOHE (IPOHE [4]): 1 (1=0-20%)
- percentage damage caused to the plant, SETFA (Setaria faberi (SETFA) [5]): 1 (1=0-20%)
- percentage damage caused to the plant, AMARE [6]: 5 (5=81-100%)
- percentage damage caused to the plant, AMAPA (AMAPA [7]): 5 (5=81-100%)
- percentage damage caused to the plant, ECHCG [8]: 3 (3=41-60%)
- percentage damage caused to the plant, IPOHE (IPOHE [9]): 4 (4=61-80%)
- percentage damage caused to the plant, SETFA (Setaria faberi (SETFA) [10]): 4 (4=61-80%)

SMILES: FC(F)(F)c1cn(Cc2ncc(Cl)cn2)c(-n2cc(Cl)cn2)n1 [Compound 1.065, 5-chloro-2-[[2-(4-chloropyrazol-1-yl)-4-(trifluoromethyl)imidazol-1-yl]methyl]pyrimidine]
- percentage damage caused to the plant, AMARE [1]: 4 (4=61-80%)
- percentage damage caused to the plant, AMAPA (AMAPA [2]): 4 (4=61-80%)
- percentage damage caused to the plant, ECHCG [3]: 2 (2=21-40%)
- percentage damage caused to the plant, IPOHE (IPOHE [4]): 3 (3=41-60%)
- percentage damage caused to the plant, SETFA (Setaria faberi (SETFA) [5]): 2 (2=21-40%)
- percentage damage caused to the plant, AMARE [6]: 5 (5=81-100%)
- percentage damage caused to the plant, AMAPA (AMAPA [7]): 5 (5=81-100%)
- percentage damage caused to the plant, ECHCG [8]: 1 (1=0-20%)
- percentage damage caused to the plant, IPOHE (IPOHE [9]): 4 (4=61-80%)
- percentage damage caused to the plant, SETFA (Setaria faberi (SETFA) [10]): 2 (2=21-40%)

SMILES: FC(F)(F)c1cn(Cc2ncc(Cl)cn2)c(-c2ccc(Cl)s2)n1 [Compound 1.001, 5-chloro-2-[[2-(5-chloro-2-thienyl)-4-(trifluoromethyl)imidazol-1-yl]methyl]pyrimidine]
- percentage damage caused to the plant, AMARE [1]: 5 (5=81-100%)
- percentage damage caused to the plant, AMAPA (AMAPA [2]): 5 (5=81-100%)
- percentage damage caused to the plant, ECHCG [3]: 5 (5=81-100%)
- percentage damage caused to the plant, IPOHE (IPOHE [4]): 4 (4=61-80%)
- percentage damage caused to the plant, SETFA (Setaria faberi (SETFA) [5]): 5 (5=81-100%)
- percentage damage caused to the plant, AMARE [6]: 5 (5=81-100%)
- percentage damage caused to the plant, AMAPA (AMAPA [7]): 5 (5=81-100%)
- percentage damage caused to the plant, ECHCG [8]: 5 (5=81-100%)
- percentage damage caused to the plant, IPOHE (IPOHE [9]): 5 (5=81-100%)
- percentage damage caused to the plant, SETFA (Setaria faberi (SETFA) [10]): 5 (5=81-100%)

SMILES: FC(F)(F)c1cn(Cc2ncc(Cl)cn2)c(-n2ccc(Cl)n2)n1 [Compound 1.066]
- percentage damage caused to the plant, AMARE [1]: 4 (4=61-80%)
- percentage damage caused to the plant, AMAPA (AMAPA [2]): 3 (3=41-60%)
- percentage damage caused to the plant, ECHCG [3]: 1 (1=0-20%)
- percentage damage caused to the plant, IPOHE (IPOHE [4]): 4 (4=61-80%)
- percentage damage caused to the plant, SETFA (Setaria faberi (SETFA) [5]): 1 (1=0-20%)
- percentage damage caused to the plant, AMARE [6]: 5 (5=81-100%)
- percentage damage caused to the plant, AMAPA (AMAPA [7]): 5 (5=81-100%)
- percentage damage caused to the plant, ECHCG [8]: 1 (1=0-20%)
- percentage damage caused to the plant, IPOHE (IPOHE [9]): 4 (4=61-80%)
- percentage damage caused to the plant, SETFA (Setaria faberi (SETFA) [10]): 2 (2=21-40%)

SMILES: FC(F)(F)c1cn(Cc2ncc(Cl)cn2)c(-c2ccns2)n1 [Compound 1.033]
- percentage damage caused to the plant, AMARE [1]: 5 (5=81-100%)
- percentage damage caused to the plant, AMAPA (AMAPA [2]): 5 (5=81-100%)
- percentage damage caused to the plant, ECHCG [3]: 5 (5=81-100%)
- percentage damage caused to the plant, IPOHE (IPOHE [4]): 4 (4=61-80%)
- percentage damage caused to the plant, SETFA (Setaria faberi (SETFA) [5]): 5 (5=81-100%)
- percentage damage caused to the plant, AMARE [6]: 5 (5=81-100%)
- percentage damage caused to the plant, AMAPA (AMAPA [7]): 5 (5=81-100%)
- percentage damage caused to the plant, ECHCG [8]: 5 (5=81-100%)
- percentage damage caused to the plant, IPOHE (IPOHE [9]): 5 (5=81-100%)
- percentage damage caused to the plant, SETFA (Setaria faberi (SETFA) [10]): 5 (5=81-100%)

SMILES: Cc1c(-c2nc(C(F)(F)F)cn2Cc2ncc(Cl)cn2)cnn1C [Compound 1.012, 5-chloro-2-[[2-(1,5-dimethylpyrazol-4-yl)-4-(trifluoromethyl)imidazol-1-yl]methyl]pyrimidine]
- percentage damage caused to the plant, AMARE [1]: 2 (2=21-40%)
- percentage damage caused to the plant, AMAPA (AMAPA [2]): 3 (3=41-60%)
- percentage damage caused to the plant, ECHCG [3]: 1 (1=0-20%)
- percentage damage caused to the plant, IPOHE (IPOHE [4]): 3 (3=41-60%)
- percentage damage caused to the plant, SETFA (Setaria faberi (SETFA) [5]): 1 (1=0-20%)
- percentage damage caused to the plant, AMARE [6]: 3 (3=41-60%)
- percentage damage caused to the plant, AMAPA (AMAPA [7]): 5 (5=81-100%)
- percentage damage caused to the plant, ECHCG [8]: 1 (1=0-20%)
- percentage damage caused to the plant, IPOHE (IPOHE [9]): 5 (5=81-100%)
- percentage damage caused to the plant, SETFA (Setaria faberi (SETFA) [10]): 1 (1=0-20%)

SMILES: Cn1cc(-c2nc(C(F)(F)F)cn2Cc2ncc(Cl)cn2)cn1 [Compound 1.014]
- percentage damage caused to the plant, AMARE [1]: 3 (3=41-60%)
- percentage damage caused to the plant, AMAPA (AMAPA [2]): 3 (3=41-60%)
- percentage damage caused to the plant, ECHCG [3]: 2 (2=21-40%)
- percentage damage caused to the plant, IPOHE (IPOHE [4]): 3 (3=41-60%)
- percentage damage caused to the plant, SETFA (Setaria faberi (SETFA) [5]): 2 (2=21-40%)
- percentage damage caused to the plant, AMARE [6]: 4 (4=61-80%)
- percentage damage caused to the plant, AMAPA (AMAPA [7]): 5 (5=81-100%)
- percentage damage caused to the plant, ECHCG [8]: 4 (4=61-80%)
- percentage damage caused to the plant, IPOHE (IPOHE [9]): 5 (5=81-100%)
- percentage damage caused to the plant, SETFA (Setaria faberi (SETFA) [10]): 4 (4=61-80%)
